pIC50, pKi: −log10 of the molar value.
Assays:
[1] = biological target: Cy5-labelled Mcl1 (amino acids 171-321) C286S protein (UniProtKB Q07820) (Homo sapiens (Human), UniProt Q07820, C286S); test: Inhibition of Mcl-1 by the fluorescence quenching assay (Example A, Method B); assay type: binding
Outline: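 Eleven-point compound series incubated 2 h at room temperature with 1 nM Cy5-tagged protein and quencher-labelled PUMA peptide at 10, 20 or 400 nM in HEPES/NaCl/Tween 20, pH 7.4, 5% DMSO. IC50 for 50% fluorescence increase by 4-parameter fit, then Ki derived (complete cKi or estimated eKi).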

[2] = system: NCI-H929 cell lines; test: In vitro cytotoxicity, CellTiter-Glo (CTG) assay (Example B, Method B); assay type: cell-based; conditions: Homo sapiens, NCI-H929, 48 h, NCI-H929 cells, 48 h incubation, read-out: C50
Outline: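 ATP-based luminescence (CellTiter-Glo) after 48 h incubation at 37° C., 5% CO2 gave NCI-H929 viability. Eleven concentrations tested, highest final 30 μM, dispensed acoustically from 10 mM DMSO stocks; C50 defined as concentration reaching 50% viability.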

[3] = system: AMO-1 multiple myeloma xenograft; test: Quantification of the cleaved form of PARP in vivo, per os (Example C); set-up: species or system SCID mice; conditions: single dose per os, tumors recovered 16 hours after dosing
Protocol: (§1) The ability of the compounds of the invention to induce apoptosis was evaluated in vivo using the AMO-1 multiple myeloma xenograft.
1×10^7 cells were subcutaneously grafted into immunosuppressed SCID mice. 12-14 days later, when tumors had reached the appropriate volume, mice (3 per group) were treated once with the various compounds (per os, HEC 1%/Tween 80 99:1). Tumor samples were recovered 16 hours after dosing and lysed. Cleared lysates were used for cleaved PARP quantification (as a marker of apoptosis induction) using the Meso Scale Discovery (MSD) Elisa platform test. Results are expressed as the ratio between cleaved PARP in treated mice over control mice.

[4] = system: AMO-1 multiple myeloma xenografts; test: Anti-tumor activity in vivo (Example D); set-up: species or system SCID mice
Protocol: The anti-tumor activity of the compounds of the invention was evaluated using AMO-1 multiple myeloma xenografts.
1×10^7 cells were subcutaneously grafted into immunosuppressed SCID mice. 7-10 days later, when the tumor mass had reached an average volume of about 150 mm^3, mice were treated with the various compounds once a week for 2 weeks (per os, HEC 1%/Tween 80 99:1). Tumor size was measured three times per week using electronic calipers.
At the end of the treatment cycle (d9), tumor growth inhibition (TGI) was calculated using the formula: […]
wherein DTV (Delta Tumor Volume) at Dx was calculated as follows: […]
(Tumor Volume at Dx)−(Tumor Volume at Randomization).

[5] = system: AMO-1 multiple myeloma xenograft; test: Quantification of the cleaved form of PARP in vivo, IV (Example E); set-up: species or system SCID mice; conditions: single dose
Protocol: as §1
1×10^7 cells were subcutaneously grafted into immunosuppressed SCID mice. 12-14 days later, when tumors had reached the appropriate volume, mice (3 per group) were treated once with the various compounds (IV). Tumor samples were recovered 6 or 16 hours after dosing and lysed. Cleared lysates were used for cleaved PARP quantification (as a marker of apoptosis induction) using the Meso Scale Discovery (MSD) Elisa platform test. Results are expressed as the ratio between cleaved PARP in treated mice over control mice.

[6] = 60 mpk per os once a week for 2 weeks
[7] = 30 mpk per os once a week for 2 weeks

Cy5-labelled Mcl1 (amino acids 171-321) C286S protein, sequence (Q07820 171-321 C286S): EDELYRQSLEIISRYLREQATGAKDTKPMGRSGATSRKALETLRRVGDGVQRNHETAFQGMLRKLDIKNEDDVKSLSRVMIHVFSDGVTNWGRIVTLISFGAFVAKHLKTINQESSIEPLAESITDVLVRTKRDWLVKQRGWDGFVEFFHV

| Compound | pKi [1] | pIC50 [2] | Cleaved PARP (fold to control) ([3]; 30 mpk) | Cleaved PARP (fold to control) ([3]; 60 mpk) | % TGI (d9) [4, 6] | Cleaved PARP (fold to control) ([5]; 15 mpk IV, time-point 6 h) | Cleaved PARP (fold to control) ([5]; 30 mpk IV, time-point 6 h) | Cleaved PARP (fold to control) ([5]; 30 mpk IV, time-point 16 h) | % TGI (d9) [4, 7] |
| --- | --- | --- | --- | --- | --- | --- | --- | --- | --- |
| COCc1ccc2c(c1)[C@]1(CC[C@@](Nc3cccc(Cl)c3)(C(=O)O)CC1)[C@@H](C[C@@H](C)COc1ccnc3c1[C@H](C)CCC3)C2 [Example 919, (1r,2′S,4S)-4-(3-chloroanilino)-6′-(methoxymethyl)-2′-[(2R)-2-methyl-3-{[(5R)-5-methyl-5,6,7,8-tetrahydroquinolin-4-yl]oxy}propyl]-2′,3′-dihydrospiro[cyclohexane-1,1′-indene]-4-carboxylic acid] | 10.57 | 7.41 | 6.7 fold to control | 9.7 fold to control | 121% | 185.6 fold to control | 199.9 fold to control | 69.7 fold to control | – |
| C[C@@H](COc1ccnc2c1[C@H](C)CCC2)C[C@H]1Cc2cc3c(cc2[C@]12CC[C@@](Nc1ccc(F)c(Cl)c1)(C(=O)O)CC2)OCO3 [Example 845, (1r,4S,6′S)-4-(3-chloro-4-fluoroanilino)-6′-[(2R)-2-methyl-3-{[(5R)-5-methyl-5,6,7,8-tetrahydroquinolin-4-yl]oxy}propyl]-6′,7′-dihydro-2′H-spiro[cyclohexane-1,5′-indeno[5,6-d][1,3]dioxole]-4-carboxylic acid] | 10.13 | 7.42 | – | – | 128.3% | 188.7 fold to control | 158.2 fold to control | 116.4 fold to control | 88.2% |
| C[C@@H](COc1ccnc2c1[C@H](C)CCC2)C[C@H]1Cc2cc3c(cc2[C@]12CC[C@@](Nc1cccc(Cl)c1)(C(=O)O)CC2)OCO3 [Example 840, (1r,4S,6′S)-4-(3-chloroanilino)-6′-[(2R)-2-methyl-3-{[(5R)-5-methyl-5,6,7,8-tetrahydroquinolin-4-yl]oxy}propyl]-6′,7′-dihydro-2′H-spiro[cyclohexane-1,5′-indeno[5,6-d][1,3]dioxole]-4-carboxylic acid] | 10.26 | 7.52 | 19.2 fold to control | 29.4 fold to control | 119.8% | 127.8 fold to control | 166.3 fold to control | 138.2 fold to control | 83.8% |

Reference: patent US20240150293A1, “SPIROCYCLOHEXANE DERIVATIVES, PHARMACEUTICAL COMPOSITIONS CONTAINING THEM AND THEIR USES AS ANTI-APOPTOTIC INHIBITORS” (LES LABORATOIRES SERVIER, priority 2021, published 2024)
